Columns and labels:
[1] = tested on: PRMT5-dependent di-methylarginine marks in HCT116 isogenic pair; experiment: Immunoblot of PRMT5-dependent di-methylarginine marks; format: cell-based; conditions: MTAP−/− and wt HCT116 cells, 5 days
From the text: (§1) FIGS. 2A-F. PRMT5 is selectively essential in MTAP-null cells upon genetic ablation but not pharmacologic targeting. Immunoblot analysis of the indicated proteins in HCT116 MTAP^−/− and HCT116 MTAP wt cells stably expressing PRMT5 shRNA and p-LVX empty vector control (EV). (B) PRMT5 is selectively essential in MTAP-null cells in vitro. Percent growth of HCT116 wt and HCT116 MTAP^−/− cells upon PRMT5 knockdown (+dox), with or without PRMT5 wt or R368A mutant rescue, versus no knockdown (no dox) control in a 10-day soft agar colony growth assay. Colonies were stained with crystal violet and then quantified using Li-Cor (mean±SD, n=3). (C) Immunoblot analysis of the indicated proteins in HCT116 MTAP^−/− and HCT116 MTAP wt cells stably expressing PRMT5 shRNA and shRNA-resistant PRMT5 wt cDNA or PRMT5 R368A catalytically-dead mutant cDNA. (D) Immunoblot analysis of symmetric di-methylarginine marks in HCT116 MTAP^−/− and HCT116 MTAP wt cells stably expressing PRMT5 shRNA and p-LVX empty vector control (EV), or PRMT5 shRNA and shRNA-resistant PRMT5 wt cDNA or PRMT5 R368A catalytically-dead mutant cDNA. (E) Dose response analysis with EPZ015666 titrated from 20 μM top dose in HCT116 MTAP wt vs. HCT116 MTAP^−/− cells. Cells were treated with EPZ015666 for 5 days and their response to the compound is measured as fold growth of treated cells vs. untreated control (mean±SD, n=3). […]

[2] = tested on: HCT116 MTAP wt vs. HCT116 MTAP−/− cells; experiment: EPZ015666 dose response, growth of HCT116 isogenic pair; format: cell-based; conditions: 5 days, titrated from 20 μM top dose
From the text: as §1

PRMT5 = target: T1, PRMT5 (Homo sapiens, UniProt O14744); experiment: N-methyltransferase in vitro activity assay; format: biochemical
T1 construct: purchased Eurofins CEREP Panlabs
Protocol: MTA has been reported to inhibit activity of protein methyltransferases (Enouf et al., 1979). To test this notion directly, we performed an in vitro biochemical screen assessing enzyme activity of 33 different N-methyltransferases following treatment with 10 μM and 100 μM MTA (FIG. 4A). […] Next, we analyzed the MTA Ki for PRMT5, PRMT4, and a diverse subset of methyltransferases (FIG. 4C). In vitro screening of methyltransferase inhibition by MTA, as well as SAM Km measurements, was conducted using a panel of methyltransferase assays at Eurofins CEREP Panlabs.

T1 sequence (O14744 whole entry): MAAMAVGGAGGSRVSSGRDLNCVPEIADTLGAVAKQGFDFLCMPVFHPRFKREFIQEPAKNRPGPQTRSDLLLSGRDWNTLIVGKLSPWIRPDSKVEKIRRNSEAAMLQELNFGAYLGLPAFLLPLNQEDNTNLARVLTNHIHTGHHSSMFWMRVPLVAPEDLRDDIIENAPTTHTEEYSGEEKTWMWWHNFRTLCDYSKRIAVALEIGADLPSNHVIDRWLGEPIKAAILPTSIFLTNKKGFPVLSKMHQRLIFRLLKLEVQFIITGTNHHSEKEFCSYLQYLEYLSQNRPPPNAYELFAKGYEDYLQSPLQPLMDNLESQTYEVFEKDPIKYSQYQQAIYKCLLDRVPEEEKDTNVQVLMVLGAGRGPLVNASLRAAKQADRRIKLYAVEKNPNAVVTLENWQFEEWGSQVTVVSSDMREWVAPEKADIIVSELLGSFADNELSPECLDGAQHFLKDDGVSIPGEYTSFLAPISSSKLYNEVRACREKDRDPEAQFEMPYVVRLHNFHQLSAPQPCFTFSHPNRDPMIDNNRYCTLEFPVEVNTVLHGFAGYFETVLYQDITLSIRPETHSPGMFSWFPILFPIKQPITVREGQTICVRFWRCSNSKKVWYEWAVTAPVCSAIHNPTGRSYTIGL
T1 sequence (Q9BQA1 whole entry partner): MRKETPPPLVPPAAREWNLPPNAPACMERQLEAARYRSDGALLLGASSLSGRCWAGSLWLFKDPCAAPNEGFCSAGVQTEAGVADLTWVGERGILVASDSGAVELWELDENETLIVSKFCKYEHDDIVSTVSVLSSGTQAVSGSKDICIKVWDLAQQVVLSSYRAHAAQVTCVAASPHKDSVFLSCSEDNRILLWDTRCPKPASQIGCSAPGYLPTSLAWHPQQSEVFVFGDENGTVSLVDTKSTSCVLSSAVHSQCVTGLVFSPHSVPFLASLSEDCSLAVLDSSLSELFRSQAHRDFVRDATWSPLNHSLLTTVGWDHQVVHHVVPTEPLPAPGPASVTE

IC50 (PRMT5; biochemical assay, read-out: PRMT5 IC50 for MTA) [nM] | Ki (PRMT5; read-out: MTA Ki for PRMT5) [nM] | Compound | PRMT5 activity inhibition (PRMT5-dependent di-methylarginine marks in total cell lysates) [1] | MTAP selectivity of growth inhibition [2] | MTAP selectivity of growth inhibition ([2]; listed as EPZ-015666)
– | – | O=C(NC[C@H](O)CN1CCc2ccccc2C1)c1cc(NC2COC2)ncn1 [EPZ015666] | equal degree of PRMT5 activity inhibition | not selective for the MTAP-deficient genetic background | did not lead to selective growth inhibition in MTAP-null cells
3000 | 460 | CSC[C@H]1O[C@@H](n2cnc3c(N)ncnc32)[C@H](O)[C@@H]1O [MTA, methylthioadenosine] | – | – | –
